The target of the assay is T1, S2-receptor (Rattus norvegicus, UniProt P14842).
T1 construct: Caudal arteries from fasted male rats; from tissue; host or cells: rat caudal artery, helical strips
In words: antagonistic activity on the effect of serotonin on the caudal artery of the rat (caudal artery test). Conditions: rat caudal artery strips; serotonin 40 ng/ml; 5 minutes after adding the drug; read-out: ED50 (minimal concentration which reduces the amplitude of the serotonin-induced contraction to at least 50% of its normal value) (converted). The procedure: ANTAGONISTIC ACTIVITY ON THE EFFECT OF SEROTONIN ON THE CAUDAL ARTERY OF THE RAT
Caudal arteries from fasted male rats (210-235 g) were used in the test. […] Submaximal contractions of the arterial strips were produced by adding single doses of serotonin (40 ng/ml) to the organ bath for 2 minutes with each time an interval of 10 minutes. The amplitude of the contraction was measured before and 5 minutes after adding the drug. After washing out, the agonist was added again three times in order to see whether the contraction was restored and normalized. […] In this connection the ED50 -values are the minimal concentrations of the concerned drugs which reduce the amplitude of the contraction to at least 50% of its normal value.

Where a name gives a salt, the structure may show the parent alone.

T1 sequence (P14842 whole entry): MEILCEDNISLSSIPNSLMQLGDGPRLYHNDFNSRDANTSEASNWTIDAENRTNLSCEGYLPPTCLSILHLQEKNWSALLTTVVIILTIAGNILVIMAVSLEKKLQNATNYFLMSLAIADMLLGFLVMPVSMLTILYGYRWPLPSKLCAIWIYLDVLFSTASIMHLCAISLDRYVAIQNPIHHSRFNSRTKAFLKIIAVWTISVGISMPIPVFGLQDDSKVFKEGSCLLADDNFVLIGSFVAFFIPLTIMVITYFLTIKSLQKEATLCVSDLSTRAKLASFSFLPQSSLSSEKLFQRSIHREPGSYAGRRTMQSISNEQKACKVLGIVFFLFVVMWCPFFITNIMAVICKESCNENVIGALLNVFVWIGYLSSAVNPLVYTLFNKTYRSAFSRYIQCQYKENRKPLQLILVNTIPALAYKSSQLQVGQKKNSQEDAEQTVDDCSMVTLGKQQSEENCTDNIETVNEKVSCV

As to `Cc1nc2sccn2c(=O)c1CCN1CCC(=C(c2ccc(F)cc2)c2ccc(Br)cc2)CC1` [Compound 34], the IC50 is 1.04 pM.

Regarding `Cc1nc2n(c(=O)c1CCN1CCC(=C(c3ccc(F)cc3)c3ccc(Br)cc3)CC1)CCCC2` [Compound 35], the IC50 was 1.32 pM.

Regarding `Cc1nc2ccccn2c(=O)c1CCN1CCC(=C(c2ccc(F)cc2)c2cccc(F)c2)CC1` [Compound 36], the IC50 is 0.679 pM.

Turning to `Cc1nc2n(c(=O)c1CCN1CCC(=C(c3ccc(O)cc3)c3ccc(F)cc3)CC1)CCCS2` [Compound 37], the IC50 was 2.64 pM.

Take `Cc1ccc(C(=C2CCN(CCc3c(C)nc4scc(C)n4c3=O)CC2)c2ccc(F)cc2)cc1` [Compound 38]: the IC50 is 0.656 pM.

With `Cc1nc2n(c(=O)c1CCN1CCC(=C(c3ccc(O)cc3)c3ccc(F)cc3)CC1)CCCC2` [Compound 39], the IC50 is 1.33 pM.

`Cc1ccc(C(=C2CCN(CCc3c(C)nc4n(c3=O)CCCS4)CC2)c2ccc(F)cc2)cc1` [Compound 40]: the IC50 is 1.14 pM.

`Cc1ccc(C(=C2CCN(CCc3c(C)nc4ccccn4c3=O)CC2)c2ccc(F)cc2)cc1` [Compound 41]: the IC50 is 0.684 pM.

Turning to `Cc1ccc(C(=C2CCN(CCc3c(C)nc4n(c3=O)CCCC4)CC2)c2ccc(F)cc2)cc1` [Compound 42], the IC50 was 4.66 pM.

As to `Cc1ccc(C(=C2CCN(CCc3c(C)nc4ccccn4c3=O)CC2)c2ccc(C)cc2)cc1` [Compound 43], the IC50 was 1.53 pM.

For `Cc1nc2n(c(=O)c1CCN1CCC(=C(c3ccc(F)cc3)c3ccc(Br)cc3)CC1)CCS2` [Compound 44], the IC50 is 1.04 pM.

Regarding `Cc1nc2ccccn2c(=O)c1CCN1CCC(=C(c2ccc(F)cc2)c2ccc(Br)cc2)CC1` [Compound 45], the IC50 was 2.44 pM.

Take `Cc1ccc(C(=C2CCN(CCc3c(C)nc4n(c3=O)CCCC4)CC2)c2ccc(F)cc2)cc1` [Compound 46]: the IC50 is 2.76 pM.

`Cc1ccc(C(=C2CCN(CCc3c(C)nc4n(c3=O)CCS4)CC2)c2ccc(F)cc2)cc1` [Compound 47]: the IC50 was 0.673 pM.

As to `Cc1nc2sccn2c(=O)c1CCN1CCC(=C(c2ccc(Cl)cc2)c2ccc(Cl)cc2)CC1` [Compound 48], the IC50 was 4.31 pM.

In the case of `Cc1ccc(C(=C2CCN(CCc3c(C)nc4sccn4c3=O)CC2)c2ccc(F)cc2)cc1` [Compound 49], the IC50 is 0.676 pM.

In the case of `Cc1ccc2nc(C)c(CCN3CCC(=C(c4ccc(F)cc4)c4ccc(F)cc4)CC3)c(=O)n2c1` [Compound 50], the IC50 was 1.46 pM.

Take `Cc1nc2ccc(Cl)cn2c(=O)c1CCN1CCC(=C(c2ccc(F)cc2)c2ccc(F)cc2)CC1` [Compound 51]: the IC50 was 1.4 pM.

`Cc1nc2n(c(=O)c1CCN1CCC(=C(c3ccc(Cl)cc3)c3ccc(Cl)cc3)CC1)CCCC2` [Compound 52]: the IC50 is 1.4 pM.

In the case of `Cc1nc2sccn2c(=O)c1CCN1CCC(=C(c2ccc(F)cc2)c2cccnc2)CC1` [Compound 53], the IC50 was 2.82 pM.

As to `Cc1nc2n(c(=O)c1CCN1CCC(=C(c3ccc(F)cc3)c3cccnc3)CC1)CCCC2` [Compound 54], the IC50 is 6.11 pM.

Take `Cc1cc(C)n2c(=O)c(CCN3CCC(=C(c4ccc(F)cc4)c4ccc(F)cc4)CC3)c(C)nc2c1` [Compound 55]: the IC50 was 2.6 pM.

Regarding `Cc1nc2ccccn2c(=O)c1CCN1CCC(=C(c2ccc(F)cc2)c2cccnc2)CC1` [Compound 57], the IC50 was 2.86 pM.

On to `Cc1nc2ccccn2c(=O)c1CCN1CCC(=C(c2ccc(F)cc2)c2ccc(F)cc2)CC1` [Compound 58], for which the IC50 was 1.34 pM.

Take `Cc1ccn2c(=O)c(CCN3CCC(=C(c4ccc(F)cc4)c4ccc(F)cc4)CC3)c(C)nc2c1` [Compound 59]: the IC50 is 0.659 pM.

Consider `Cc1nc2sccn2c(=O)c1CCN1CCC(=C(c2ccc(F)cc2)c2ccc(F)cc2)C(O)C1` (stereo not shown) [Compound 60], for which the IC50 is 2.63 pM.

Consider `Cc1nc2ccccn2c(=O)c1CCN1CCC(=C(c2ccc(F)cc2)c2ccc(F)cc2)C(O)C1` (stereo not shown) [Compound 61], for which the IC50 was 4.51 pM.

Regarding `COC1CN(CCc2c(C)nc3ccccn3c2=O)CCC1=C(c1ccc(F)cc1)c1ccc(F)cc1` (stereo not shown) [Compound 62], the IC50 was 5.58 pM.

Consider `COC1CN(CCc2c(C)nc3sccn3c2=O)CCC1=C(c1ccc(F)cc1)c1ccc(F)cc1` (stereo not shown) [Compound 63], for which the IC50 was 2.56 pM.

With `Cc1ccc(C(=C2CCN(CCc3c(C)nc4sccn4c3=O)CC2)c2ccccc2)cc1` [Compound 66], the IC50 was 0.158 pM.

As for `Cc1cccc(C(=C2CCN(CCc3c(C)nc4scc(C)n4c3=O)CC2)c2ccccc2)c1` [Compound 68], the IC50 was 0.681 pM.

`Cc1cccc(C(=C2CCN(CCc3c(C)nc4sccn4c3=O)CC2)c2ccccc2)c1` [Compound 69]: the IC50 was 0.702 pM.

In the case of `Cc1cccc(C(=C2CCN(CCc3c(C)nc4n(c3=O)CCCS4)CC2)c2ccccc2)c1` [Compound 70], the IC50 was 1.19 pM.

For `Cc1ccc(C(=C2CCN(CCc3c(C)nc4n(c3=O)CCCC4)CC2)c2ccccc2)cc1` [Compound 71], the IC50 is 0.705 pM.

`Cc1nc2scc(C)n2c(=O)c1CCN1CCC(=C(c2ccccc2)c2ccc(O)cc2)CC1` [Compound 72]: the IC50 was 1.51 pM.

As for `Cc1nc2n(c(=O)c1CCN1CCC(=C(c3ccccc3)c3ccc(O)cc3)CC1)CCS2` [Compound 73], the IC50 is 5.44 pM.

Consider `Cc1nc2ccccn2c(=O)c1CCN1CCC(=C(c2ccccc2)c2ccc(O)cc2)CC1` [Compound 78], for which the IC50 is 2.88 pM.

Turning to `Cc1nc2sccn2c(=O)c1CCN1CCC(=C(c2ccccc2)c2ccc(O)cc2)CC1` [Compound 80], the IC50 was 2.84 pM.

Regarding `Cc1ccccc1C(=C1CCN(CCc2c(C)nc3scc(C)n3c2=O)CC1)c1ccccc1` [Compound 81], the IC50 was under 5.32 pM.

With `Cc1nc2scc(C)n2c(=O)c1CCN1CCC(=C(c2ccccc2)c2cccc(C(F)(F)F)c2)CC1` [Compound 85], the IC50 is under 4.77 pM.

Consider `Cc1nc2n(c(=O)c1CCN1CCC(=C(c3ccccc3)c3cccc(C(F)(F)F)c3)CC1)CCCC2` [Compound 86], for which the IC50 is 0.63 pM.

With `Cc1nc2ccccn2c(=O)c1CCN1CCC(=C(c2ccccc2)c2cccc(C(F)(F)F)c2)CC1` [Compound 87], the IC50 is under 4.96 pM.

Consider `Cc1nc2sccn2c(=O)c1CCN1CCC(=C(c2ccccc2)c2cccc(C(F)(F)F)c2)CC1` [Compound 89], for which the IC50 was under 4.91 pM.

In the case of `Cc1nc2n(c(=O)c1CCN1CCC(=C(c3ccccc3)c3cccc(C(F)(F)F)c3)CC1)CCS2` [Compound 90], the IC50 is 1.39 pM.

With `Cc1ccccc1C(=C1CCN(CCc2c(C)nc3n(c2=O)CCCC3)CC1)c1ccccc1` [Compound 92], the IC50 is 0.705 pM.

Regarding `Cc1nc2n(c(=O)c1CCN1CCC(=C(c3ccccc3)c3ccccc3)CC1)CCCS2` [Compound 104, 7-[2-[4-(diphenylmethylene)-1-piperidinyl]ethyl]-3,4-dihydro-8-methyl-2H,6H-pyrimido[2,1-b][1,3]-thiazin-6-one], the IC50 is 0.699 pM.

Regarding `Cc1nc2scc(C)n2c(=O)c1CCN1CCC(=C(c2ccccc2)c2ccccc2)CC1` [Compound 105, 6-[2-[4-(diphenylmethylene)-1-piperidinyl]ethyl]-3,7-dimethyl-5H-thiazolo[3,2-a]pyrimidin-5-one], the IC50 was 0.702 pM.

For the molecule `Cc1nc2n(c(=O)c1CCN1CCC(=C(c3ccccc3)c3ccccc3)CC1)CCS2` [Compound 107, 6-[2-[4-(diphenylmethylene)-1-piperidinyl]ethyl]-2,3-dihydro-7-methyl-5H-thiazolo[3,2-a]pyrimidin-5-one dihydrochloride], the IC50 is 1.08 pM.

Consider `Cc1ccc(C(=C2CCN(CCc3c(C)nc4n(c3=O)CCCS4)CC2)c2ccc(C)cc2)cc1` [Compound 108, 7-[2-[4-[bis(4-methylphenyl)methylene]-1-piperidinyl]ethyl]-3,4-dihydro-8-methyl-2H,6H-pyrimido[2,1-b][1,3]thiazin-6-one], for which the IC50 is 2.68 pM.

With `Cc1nc2n(c(=O)c1CCN1CCC(=C(c3ccc(Cl)cc3)c3ccc(Cl)cc3)CC1)CCS2` [Compound 110, 6-[2-[4-[bis(4-chlorophenyl)methylene]-1-piperidinyl]ethyl]-2,3-dihydro-7-methyl-5H-thiazolo[3,2-a]pyrimidin-5-one], the IC50 was 2.54 pM.

`Cc1nc2scc(C)n2c(=O)c1CCN1CCC(=C(c2ccc(F)cc2)c2ccc(F)cc2)CC1` [Compound 112, 6-[2-[4-[bis(4-fluorophenyl)methylene]-1-piperidinyl]ethyl]-3,7-dimethyl-5H-thiazolo[3,2-a]pyrimidin-5-one]: the IC50 is 0.651 pM.

Regarding `Cc1nc2n(c(=O)c1CCN1CCC(=C(c3ccc(F)cc3)c3ccc(F)cc3)CC1)CCS2` [Compound 113], the IC50 was 1.17 pM.

As to `Cc1nc2n(c(=O)c1CCN1CCC(=C(c3ccc(F)cc3)c3ccc(F)cc3)CC1)CCCS2` [Compound 114], the IC50 is 1.13 pM.

For `Cc1nc2n(c(=O)c1CCN1CCC(=C(c3ccccc3)c3ccc(F)cc3)CC1)CCCS2` [Compound 115], the IC50 is 2.73 pM.

For the molecule `Cc1nc2n(c(=O)c1CCN1CCC(=C(c3ccccc3)c3ccc(F)cc3)CC1)CCS2` [Compound 116], the IC50 was 2.82 pM.

With `Cc1nc2scc(C)n2c(=O)c1CCN1CCC(=C(c2ccccc2)c2ccc(F)cc2)CC1` [Compound 117], the IC50 was under 1.33 pM.

For the molecule `Cc1nc2n(c(=O)c1CCN1CCC(=C(c3ccc(F)cc3)c3cccc(C(F)(F)F)c3)CC1)CCS2` [Compound 118], the IC50 is 2.36 pM.

As to `Cc1nc2scc(C)n2c(=O)c1CCN1CCC(=C(c2ccc(F)cc2)c2cccc(C(F)(F)F)c2)CC1` [Compound 119], the IC50 was 2.31 pM.

For the origin of these results see patent US4533665A, “[[Bis(aryl)methylene]-1-piperidinyl]alkyl-pyrimidinones” (Janssen Pharmaceutica, priority 1984, dated 1985).
